Test [1] addresses T1, Drosophila TRPA1 (Drosophila melanogaster, UniProt Q7Z020).
T1 construct: expressed in transfected cells; host or cells: HEK293
T1 sequence (Q7Z020 1-1197): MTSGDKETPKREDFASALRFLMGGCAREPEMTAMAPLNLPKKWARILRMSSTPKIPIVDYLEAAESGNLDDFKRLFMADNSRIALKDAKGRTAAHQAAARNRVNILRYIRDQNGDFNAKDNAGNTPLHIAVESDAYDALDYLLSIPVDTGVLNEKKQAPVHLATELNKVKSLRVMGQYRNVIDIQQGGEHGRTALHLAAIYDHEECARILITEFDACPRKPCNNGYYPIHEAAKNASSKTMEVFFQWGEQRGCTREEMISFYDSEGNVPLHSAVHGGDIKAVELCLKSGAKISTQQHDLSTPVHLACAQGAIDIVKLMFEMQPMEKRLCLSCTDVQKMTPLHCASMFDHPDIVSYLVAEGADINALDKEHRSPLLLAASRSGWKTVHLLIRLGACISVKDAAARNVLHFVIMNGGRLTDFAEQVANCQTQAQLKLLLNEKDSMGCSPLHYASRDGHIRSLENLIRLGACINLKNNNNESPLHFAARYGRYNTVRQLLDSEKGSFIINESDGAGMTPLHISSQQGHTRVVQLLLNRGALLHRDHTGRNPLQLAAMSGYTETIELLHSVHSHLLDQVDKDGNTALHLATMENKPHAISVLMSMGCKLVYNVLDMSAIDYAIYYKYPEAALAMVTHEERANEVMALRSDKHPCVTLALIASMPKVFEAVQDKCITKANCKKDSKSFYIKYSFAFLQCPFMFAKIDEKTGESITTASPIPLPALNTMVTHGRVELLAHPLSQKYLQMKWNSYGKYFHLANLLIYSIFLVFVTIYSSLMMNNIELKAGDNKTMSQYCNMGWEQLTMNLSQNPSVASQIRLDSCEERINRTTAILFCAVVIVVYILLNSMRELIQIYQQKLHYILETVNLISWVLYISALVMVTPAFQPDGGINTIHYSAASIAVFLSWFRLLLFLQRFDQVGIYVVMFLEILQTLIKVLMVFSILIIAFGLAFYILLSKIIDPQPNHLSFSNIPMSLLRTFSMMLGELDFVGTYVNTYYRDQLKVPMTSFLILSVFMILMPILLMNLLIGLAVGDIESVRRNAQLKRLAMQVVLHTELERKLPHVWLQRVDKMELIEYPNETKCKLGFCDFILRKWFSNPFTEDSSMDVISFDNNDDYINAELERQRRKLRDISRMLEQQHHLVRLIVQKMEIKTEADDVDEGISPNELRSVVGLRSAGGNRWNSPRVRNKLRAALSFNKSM
The test is described as follows: Current-voltage recordings in dTRPA1-expressing HEK293 cells. Type of test: cell-based. Particulars: desflurane at concentrations up to 3 mM. How it is done:
(§1) A genetic approach was used to identify critical sites in TRPA1 and TRPV1 required for activation by general anesthetics. Drosophila TRPA1 is insensitive to desflurane (at concentrations up to 3 mM). […] Note that dTRPA1 is insensitive to AITC. Next, several chimeric TRP proteins containing dTRPA1 (unresponsive to desflurane) and mTRPA1 were tested. For the dTRPA1-mN chimera, the mouse 720 amino acid N-terminus was exchanged for the drosophila N-terminus. The N-terminal domain contains essential binding sites for AITC, and therefore studying this chimera tests an important role for the N-terminus in anesthetic-sensing. […] The mTRPA1-dTM5 construct was then studied, which is the mouse protein containing the fifth transmembrane domain of the drosophila protein.

Test [2] relates to AITC-sensitive DRG neurons. Put plainly: Voltage- and current-clamp of DRG sensory neurons. In kind it is cell-based, mouse. Conditions: 10 of 11 cells. As for the experimental part: Electrophysiology. HEK 293F cells were transfected with rat TRPV1, TRPA1, and TRPM8 (gift of David Julius, University of California, San Francisco). Dorsal root ganglia were cultured from adult mice (C57B16/J wild type and TRPV1-null, and mixed B6/129 background TRPA1-null) in Neurobasal +2% B-27 medium (Invitrogen), 0.1% L-glutamine and 1% penicillin/streptomycin. Whole-cell and single-channel patch-clamp recordings were performed by using an EPC8 amplifier (HEKA Electronics). For whole-cell and excised patch recordings the bath solution contained 140 mMNaCl, 4 mMKCl, 1 mMMgCl2, 1.2 mMCaCl2, 10 mMHepes, 10 mM glucose, pH 7.3. For cell-attached experiments, NaCl was replaced with KCl in the bath solution. The pipette solution contained 140 mM NaCl or KCl, 10 mM Hepes, 5 mM EGTA, pH 7.3. For neuronal recording NaCl was replaced with K-gluconate (plus 1 mMATP, 0.2 mM GTP). Solutions were applied via a gravity-fed system. Separate outlets were used to apply capsaicin and AITC solutions to avoid contamination. Voltage-dependent properties were measured as described in Matt and Ahern, J. Physiol. 585:469-482 (2007). Current-voltage measurements comprised a 200-ms ramp from −150 mV to +200 mV. The baseline currents under control conditions were subtracted. For cell-attached experiments, peak amplitudes were measured from all-points histograms, and open probability was measured as NPo>750 ms. Defolliculated Xenopus laevis oocytes were injected with ≈10 ng of hTRPA1 (gift of Ardem Patapoutian, The Scripps Research Institute, La Jolla, Calif.). Oocytes were placed in a Perspex chamber and continuously superfused (5 ml min^−1) with Ca^2+-free solution containing 100 mM NaCl, 2.5 mM KCl, 5 mM Hepes, 1 mM MgC12 and titrated to pH 7.3 with ˜5 mM NaOH.

For test [3], the target named is T2, dTRPA1-mN chimera (UniProt Q7Z020+Q8BLA8).
T2 construct: mouse TRPA1 N-terminus (720 amino acids); expressed in transfected cells
Put plainly: Current-voltage recordings of chimera dTRPA1-mN. In kind it is cell-based. Particulars: mouse N-terminus substituted. How it is done:
as §1

Test [4] concerns the target TRPV1 (Rattus norvegicus, UniProt O35433). Put plainly: Voltage-clamp of TRPV1-expressing Xenopus oocytes (capsaicin, protons, heat). In kind it is cell-based. Particulars: PDBu 200 nM, 3 minutes. How it is done: Oocyte electrophysiology. […] Oocytes were placed in a Perspex chamber and continuously superfused (5 ml min-1) with Ca2+-free solution containing (in mM): 100 NaCl, 2.5 KCl, 5 HEPES, 1 MgCl2 and titrated to pH 7.3 with ˜5 mM NaOH. For solutions <pH 6.0, HEPES was replaced with either 5 mM MES or 5 mM sodium citrate. Oocytes were routinely voltage-clamped at −60 mV at 22-23° C. For heat activation, bath temperature was raised from ˜22-50° C. over ˜100 s using an in-line solution heater (Warner Instruments). The temperature was continuously monitored with a probe placed within 2 mm of the oocyte. The temperature-activation threshold was defined as a 20% increase in current above baseline.
Volatile general anesthetics. Saturated stock solutions of volatile general anesthetics (VGAs) were prepared in gas-tight bottles by dissolving excess anesthetic agents in bath solutions and stirring vigorously overnight. From these stock solutions fresh dilutions were made up every 40-60 minutes. Concentrations of volatile anesthetics in the bath solutions were verified using a modified head-space gas chromatography method. The gas chromatograph (Carlo Erba, Milan, Italy) was equipped with a flame ionization detector (FID) and mass spectrometer. The carrier gas was hydrogen (60 kPa column head pressure) and the fused silica capillary column, coated with polysiloxane SE-30, was 25 m×0.25 mm. Injector temperature was 250° C., FID temperature was 300° C. and the oven was maintained at 90° C. Standards were prepared from a mixture of halothane, isoflurane, and sevoflurane dissolved in acetonitrile with enflurane as an internal standard.

For test [5], the target named is T3, mutant S502A/S800A TRPV1 (Rattus norvegicus, UniProt O35433, S502A/S800A).
T3 construct: expressed in transfected cells; host or cells: Xenopus laevis oocytes (cRNA injection)
Put plainly: Heat activation in oocytes expressing mutant S502A/S800A TRPV1. In kind it is cell-based. How it is done:
Oocyte electrophysiology. […] Oocytes were placed in a Perspex chamber and continuously superfused (5 ml min-1) with Ca2+-free solution containing (in mM): 100 NaCl, 2.5 KCl, 5 HEPES, 1 MgCl2 and titrated to pH 7.3 with 5 mM NaOH. For solutions <pH 6.0, HEPES was replaced with either 5 mM MES or 5 mM sodium citrate. Oocytes were routinely voltage-clamped at -60 mV at 22-23° C.

T3 sequence (O35433 whole entry S502A/S800A): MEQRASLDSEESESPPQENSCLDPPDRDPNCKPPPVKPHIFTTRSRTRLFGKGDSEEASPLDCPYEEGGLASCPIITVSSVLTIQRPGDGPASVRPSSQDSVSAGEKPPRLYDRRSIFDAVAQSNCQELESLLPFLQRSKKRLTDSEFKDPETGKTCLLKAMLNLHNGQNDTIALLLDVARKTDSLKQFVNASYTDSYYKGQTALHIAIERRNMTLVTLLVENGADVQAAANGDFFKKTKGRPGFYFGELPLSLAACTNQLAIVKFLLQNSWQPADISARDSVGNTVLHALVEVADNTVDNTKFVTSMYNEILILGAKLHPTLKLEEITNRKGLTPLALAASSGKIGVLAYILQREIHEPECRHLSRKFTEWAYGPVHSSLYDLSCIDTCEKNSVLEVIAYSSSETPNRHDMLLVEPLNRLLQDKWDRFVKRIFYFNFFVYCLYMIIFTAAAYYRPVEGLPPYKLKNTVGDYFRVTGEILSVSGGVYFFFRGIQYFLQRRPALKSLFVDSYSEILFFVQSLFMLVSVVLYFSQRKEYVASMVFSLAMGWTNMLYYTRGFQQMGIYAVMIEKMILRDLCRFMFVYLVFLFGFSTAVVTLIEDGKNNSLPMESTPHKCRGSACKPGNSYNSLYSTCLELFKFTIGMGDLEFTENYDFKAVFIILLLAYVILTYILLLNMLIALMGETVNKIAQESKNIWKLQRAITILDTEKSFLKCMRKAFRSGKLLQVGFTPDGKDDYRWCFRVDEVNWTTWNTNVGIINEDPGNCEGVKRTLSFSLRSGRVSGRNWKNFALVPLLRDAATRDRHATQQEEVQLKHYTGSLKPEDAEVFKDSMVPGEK
Sequence of TRPV1 (O35433 whole entry, the tested form may be a part): as the sequence (O35433 whole entry S502A/S800A) above, with A502S, A800S counted along it
T2 sequence (Q8BLA8+Q7Z020 fused, change not shown): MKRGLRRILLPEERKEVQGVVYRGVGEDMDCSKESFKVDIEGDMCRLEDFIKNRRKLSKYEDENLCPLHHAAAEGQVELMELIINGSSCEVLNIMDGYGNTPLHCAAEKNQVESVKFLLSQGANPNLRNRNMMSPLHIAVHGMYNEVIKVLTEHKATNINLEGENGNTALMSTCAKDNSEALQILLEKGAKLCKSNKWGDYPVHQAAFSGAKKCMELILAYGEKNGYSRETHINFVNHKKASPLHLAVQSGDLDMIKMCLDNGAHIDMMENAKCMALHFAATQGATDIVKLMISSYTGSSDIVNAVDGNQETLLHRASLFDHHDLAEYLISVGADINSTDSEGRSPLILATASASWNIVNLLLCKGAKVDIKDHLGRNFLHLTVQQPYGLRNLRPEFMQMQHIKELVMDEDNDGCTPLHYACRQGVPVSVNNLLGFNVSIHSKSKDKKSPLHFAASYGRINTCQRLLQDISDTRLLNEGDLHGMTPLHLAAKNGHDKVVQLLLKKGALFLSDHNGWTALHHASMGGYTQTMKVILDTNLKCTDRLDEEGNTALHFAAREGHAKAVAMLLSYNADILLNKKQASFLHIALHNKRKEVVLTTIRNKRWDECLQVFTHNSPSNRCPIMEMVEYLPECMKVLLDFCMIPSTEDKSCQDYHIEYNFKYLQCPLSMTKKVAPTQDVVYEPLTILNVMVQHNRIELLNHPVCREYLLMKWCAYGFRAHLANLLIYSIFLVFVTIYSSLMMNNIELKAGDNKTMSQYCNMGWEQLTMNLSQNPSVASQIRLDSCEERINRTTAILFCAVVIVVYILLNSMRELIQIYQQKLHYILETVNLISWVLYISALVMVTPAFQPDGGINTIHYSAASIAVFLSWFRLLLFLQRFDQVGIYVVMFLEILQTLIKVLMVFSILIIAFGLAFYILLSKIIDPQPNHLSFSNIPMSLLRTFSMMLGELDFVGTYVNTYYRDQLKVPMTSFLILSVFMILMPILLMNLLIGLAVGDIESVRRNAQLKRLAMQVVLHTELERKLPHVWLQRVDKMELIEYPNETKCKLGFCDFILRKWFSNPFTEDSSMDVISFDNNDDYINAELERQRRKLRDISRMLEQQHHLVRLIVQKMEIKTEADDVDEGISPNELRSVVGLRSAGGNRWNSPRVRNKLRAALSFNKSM

As to `C=CCN=C=S` [AITC], the “Sensitivity of Drosophila TRPA1” value in test [1] was “insensitive”. In addition, the “Isoflurane-responsive neurons also sensitive to AITC” value in test [2] came to 91%. Besides, in test [3], the “Response of dTRPA1-mN chimera” value is reported as “conferred AITC-sensitivity”.
`CCCC(=O)O[C@@H]1[C@@H](C)[C@@]2(O)[C@@H](C=C(CO)C[C@]3(O)C(=O)C(C)=C[C@@H]23)[C@@H]2C(C)(C)[C@]12OC(=O)CCC` [PDBu, phorbol 12, 13 dibutyrate]: the “Temperature threshold of TRPV1 heat activation, PDBu alone” value in test [4] came to 39.3±2.3 °C. Further, the “Effect of PDBu in oocytes expressing mutant TRPV1” value in test [5] was “did not produce a significant effect”.
